In brackets after ≈: the same amount, converted by molar mass. Where two headings read alike, the source gives them in different places.
Tests used:
[1] = system: Ent. cloacae MA2646; assay: in vitro antibacterial activity, microtitration dilution (MIC), Ent. cloacae MA2646; assay type: cell-based; conditions: Enterobacter cloacae, read-out: minimum inhibiting concentration (MIC)
Source text: (§1) The in vitro antibacterial activity is obtained when tested by the microtitration dilution method as described in Heifetz, et al., Antimicr. Agents & Chemother. 1974;6:124, which is incorporated herein by reference.
(§2) By use of the above methods, the following minimum inhibiting concentration values (MICs in μg/ml), PD50 's in mg/kg, no effect phototoxicity dose in mg/kg and the cytotoxicity IC50 in μg/mL were obtained for representative enantiomers of the invention and compounds of the prior art as shown in the table.

[2] = system: Esch. coli Vogel; assay: in vitro antibacterial activity, microtitration dilution (MIC), Esch. coli Vogel; assay type: cell-based; conditions: Escherichia coli, read-out: minimum inhibiting concentration (MIC)
Source text: as §1, §2

[3] = system: Klebs. pneumoniae MGH-2; assay: in vitro antibacterial activity, microtitration dilution (MIC), Klebs. pneumoniae MGH-2; assay type: cell-based; conditions: Klebsiella pneumoniae, MGH2, read-out: minimum inhibiting concentration (MIC)
Source text: as §1, §2

[4] = system: Prot. rettgeri M 1771; assay: in vitro antibacterial activity, microtitration dilution (MIC), Prot. rettgeri M 1771; assay type: cell-based; conditions: Providencia rettgeri, M1771, read-out: minimum inhibiting concentration (MIC)
Source text: as §1, §2

[5] = system: Pseud. aeruginosa UI-18; assay: in vitro antibacterial activity, microtitration dilution (MIC), Pseud. aeruginosa UI-18; assay type: cell-based; conditions: Pseudomonas aeruginosa, UI18, read-out: minimum inhibiting concentration (MIC)
Source text: as §1, §2

[6] = system: Staph. aureus H 228; assay: in vitro antibacterial activity, microtitration dilution (MIC), Staph. aureus H 228; assay type: cell-based; conditions: Staphylococcus aureus, H228, read-out: minimum inhibiting concentration (MIC)
Source text: as §1, §2

[7] = system: Staph. aureus UC-76; assay: in vitro antibacterial activity, microtitration dilution (MIC), Staph. aureus UC-76; assay type: cell-based; conditions: Staphylococcus aureus, UC76, read-out: minimum inhibiting concentration (MIC)
Source text: as §1, §2

[8] = system: Strep. faecalis MGH-2; assay: in vitro antibacterial activity, microtitration dilution (MIC), Strep. faecalis MGH-2; assay type: cell-based; conditions: Enterococcus faecalis, MGH2, read-out: minimum inhibiting concentration (MIC)
Source text: as §1, §2

[9] = system: Strep. pneumoniae SV-1; assay: in vitro antibacterial activity, microtitration dilution (MIC), Strep. pneumoniae SV-1; assay type: cell-based; conditions: Streptococcus pneumoniae, SV1, read-out: minimum inhibiting concentration (MIC)
Source text: as §1, §2

[10] = system: Strep. pyogenes C-203; assay: in vitro antibacterial activity, microtitration dilution (MIC), Strep. pyogenes C-203; assay type: cell-based; conditions: Streptococcus pyogenes, C203, read-out: minimum inhibiting concentration (MIC)
Source text: as §1, §2

[11] = system: Esch. coli Vogel; assay: median protective dose in mice given lethal systemic infection, Esch. coli; assay type: in vivo; conditions: Escherichia coli, single dose at time of challenge, route not given, read-out: median protective dose (PD50)
Description: (§3) The in vivo activity is obtained when the compounds are tested according to the procedure of Miller, et al (Proc. Soc. Exp. Biol. Med. 1944;57:261). The median protective dose (PD50) was determined in mice given lethal systemic infections. Single doses of compound were given at time of challenge.
as §2
(§4) The in vivo data as PD50 's are reported below the line of MICs for the same compound.

[12] = system: Pseud. aeruginosa UI-18; assay: median protective dose in mice given lethal systemic infection, Pseud. aeruginosa; assay type: in vivo; conditions: Pseudomonas aeruginosa, UI18, Pseud. aeruginosa, single dose at time of challenge, route not given, read-out: median protective dose (PD50)
Description: as §3, §2, §4

[13] = system: Strep. pneumoniae SV-1; assay: median protective dose in mice given lethal systemic infection, Strep. pneumoniae; assay type: in vivo; conditions: Streptococcus pneumoniae, SV1, Strep. pneumoniae, single dose at time of challenge, route not given, read-out: median protective dose (PD50)
Description: as §3, §2, §4

[14] = system: Strep. pyogenes C-203; assay: median protective dose in mice given lethal systemic infection, Strep. pyogenes; assay type: in vivo; conditions: Streptococcus pyogenes, C203, Strep. pyogenes, single dose at time of challenge, route not given, read-out: median protective dose (PD50)
Description: as §3, §2, §4

[15] = in vivo; set-up: species or system mice; conditions: mouse, po
Description: The phototoxicity data is obtained using depilated mice. Compound was administered orally each day for four successive days, followed each day by 3 hours of […] radiation. The mice were examined for any positive signs (redness, erythema) relative to control animals. The no effect dose and the 50% effect dose were determined. By use of the above methods, the following minimum inhibiting concentration values (MICs in μg/ml), PD50 's in mg/kg, no effect phototoxicity dose in mg/kg and the cytotoxicity IC50 in μg/mL were obtained for representative enantiomers of the invention and compounds of the prior art as shown in the table.

[16] = cytotoxicity, colony reduction of hamster V-79 cells; assay type: cell-based; conditions: 3 hours treatment, colonies counted after 5 days, read-out: cytotoxicity IC50 (Cytotox)
Description: The cytotoxicity data is obtained using hamster V-79 cells. The cells were suspended in tissue culture medium and grown overnight. Cells were treated with drug for 3 hours, washed free of drug and then replated, and the colonies counted after 5 days. The concentration of drug that reduced colonies by 50% relative to control was recorded.
as §2

Question: Which MIC [1] does the source give for `CC(C)(N)[C@@H]1CCN(c2nc3c(cc2F)c(=O)c(C(=O)O)cn3C2CC2)C1` [Example 4] here?
Answer: 0.1 µg/mL (≈ 0.267 µM)

Question: What about the MIC [2] of the same compound?
Answer: 0.05 µg/mL (≈ 0.134 µM)

Question: And the MIC [3]?
Answer: 0.2 µg/mL (≈ 0.534 µM)

Question: What about the MIC [4] of the same compound?
Answer: 0.4 µg/mL (≈ 1.07 µM)

Question: And the MIC [5]?
Answer: 1.6 µg/mL (≈ 4.27 µM)

Question: What about the MIC [6] of the same compound?
Answer: 0.05 µg/mL (≈ 0.134 µM)

Question: What about the MIC [7] of the same compound?
Answer: 0.003 µg/mL (≈ 0.00801 µM)

Question: What about the MIC [8] of the same compound?
Answer: 0.05 µg/mL (≈ 0.134 µM)

Question: And the MIC [9]?
Answer: 0.006 µg/mL (≈ 0.016 µM)

Question: And the MIC [10]?
Answer: 0.013 µg/mL (≈ 0.0347 µM)

Question: What about the ED50 ([11]; first line below the MICs) of the same compound?
Answer: 5 mg/kg

Question: And the ED50 ([11]; second line below the MICs)?
Answer: 1 mg/kg

Question: What about the ED50 ([12]; first line below the MICs) of the same compound?
Answer: 50 mg/kg

Question: What about the ED50 ([12]; second line below the MICs) of the same compound?
Answer: 22 mg/kg

Question: And the ED50 ([13]; first line below the MICs)?
Answer: 5 mg/kg

Question: What about the ED50 ([13]; second line below the MICs) of the same compound?
Answer: 2 mg/kg

Question: And the ED50 ([14]; first line below the MICs)?
Answer: 4 mg/kg

Question: And the ED50 ([14]; second line below the MICs)?
Answer: 1 mg/kg

Question: What about the NOAEL [15] of the same compound?
Answer: 30 mg/kg

Question: And the CC50 at 3 h [16]?
Answer: 130 µg/mL (≈ 347 µM)
